Source: patent publication US6677350B1, “Beta-fluoroethyl thiourea compounds and use” (priority 1999, dated 2004)
Where two headings read alike, the source gives them in different places.

Test system: M. tuberculosis H37Rv (ATCC 27294)
Assay: In vitro anti-tuberculosis screening, BACTEC 460 radiometric system, percent inhibition of growth
Assay type: cell-based, Mycobacterium tuberculosis
Conditions: Mtb H37Rv; for inhibition at 12.5 µg/mL: Mycobacterium tuberculosis
[1] = drug concentration 12.5 μg/mL, read-out: inhibition of the growth of Mtb
[2] = 12.5 μg/mL, BACTEC 12B medium, read-out: Activity % Inhibition at 12.5 μg/mL (biflavonoids)

Compound: O=C(/C=C/c1ccccc1I)c1ccccc1O [Compound 44, 2′-hydroxy-2-iodochalcone]
- inhibition at 12.5 µg/mL (12.5 μg/mL, BACTEC 12B medium, read-out: Activity % inhibition at 12.5 μg/mL (chalcones)): 41%
- inhibition at 12.5 µg/mL [1]: 41%

Compound: COc1ccc(C=CC(=O)c2ccc(Br)cc2O)cc1 [Compound 36]
- Activity % inhibition at 12.5 μg/mL (chalcones) (12.5 μg/mL, BACTEC 12B medium): 25%
- inhibition of the growth of Mtb (drug concentration 12.5 μg/mL): 25%

Compound: O=C(O)c1ccc2c(c1)C(=O)CC(c1ccccc1)O2 (centres unmarked) [Compound 146]
- Activity % Inhibition at 12.5 μg/mL (flavanones) (12.5 μg/mL, BACTEC 12B medium): 0%

Compound: COc1ccc(O)c(C(=O)/C=C/c2ccco2)c1 [Compound 69]
- Activity % inhibition at 12.5 μg/mL (chalcone-like compounds) (12.5 μg/mL, BACTEC 12B medium): 0%

Compound: O=C(/C=C/c1ccc(Cl)cc1)c1ccccc1O [Compound 27]
- Activity % inhibition at 12.5 μg/mL (chalcones) (12.5 μg/mL, BACTEC 12B medium): 67%
- inhibition of the growth of Mtb (drug concentration 12.5 μg/mL): 67%

Compound: CN(C)c1ccc(/C=C/C(=O)c2ccccn2)cc1 [Compound 62]
- Activity % inhibition at 12.5 μg/mL (chalcone-like compounds) (12.5 μg/mL, BACTEC 12B medium): 16%

Compound: O=c1cc(-c2ccccc2)oc2ccc(-c3ccccc3-c3cc(=O)c4ccccc4o3)cc12 [Compound 156, 6-2′′′′-Biflavone]
- Activity % Inhibition at 12.5 μg/mL (biflavonoids) (12.5 μg/mL, BACTEC 12B medium): 9%

Compound: COc1ccc(-c2oc3cc(F)ccc3c(=O)c2OC(C)=O)cc1 [Compound 86]
- Activity % Inhibition at 12.5 μg/mL (flavones) (12.5 μg/mL, BACTEC 12B medium): 50%

Compound: COc1ccc(/C=C/C(=O)c2c(O)cccc2OC)cc1 [Compound 2]
- Activity % inhibition at 12.5 μg/mL (chalcones) (12.5 μg/mL, BACTEC 12B medium): 75%

Compound: COc1ccc(/C=C/C(=O)c2c(O)cc(OC)cc2OC)cc1 [Compound 7]
- Activity % inhibition at 12.5 μg/mL (chalcones) (12.5 μg/mL, BACTEC 12B medium): 40%
- inhibition of the growth of Mtb (drug concentration 12.5 μg/mL): 40%

Compound: 3′′′-Nitro-C3-O-C4′′′′--Biflavone [Compound 154]
- Activity % Inhibition at 12.5 μg/mL (biflavonoids) (12.5 μg/mL, BACTEC 12B medium): 61%

Compound: O=c1cc(-c2cccc(-c3ccc4c(=O)cc(-c5ccccc5)oc4c3)c2)oc2ccccc12 [Compound 162, 7-3′′′-Biflavone]
- Activity % Inhibition at 12.5 μg/mL (biflavonoids) (12.5 μg/mL, BACTEC 12B medium): 0%

Compound: COc1ccc([C@@H]2CC(=O)c3c(OC)cc(OC)c([C@H]4C(=O)c5c(OC)cc(OC)cc5O[C@@H]4c4ccc(OC)cc4)c3O2)cc1 [Compound 153, GB-1a hexamethylether]
- Activity % Inhibition at 12.5 μg/mL (biflavonoids) (12.5 μg/mL, BACTEC 12B medium): 87%
- inhibition of the growth of Mtb (drug concentration 12.5 μg/mL): 87%

Compound: O=c1cc(-c2ccccc2)oc2ccc(I)cc12 [Compound 124]
- anti-TB activity in words (12.5 μg/mL): weakly active or inactive
- Activity % Inhibition at 12.5 μg/mL (flavones) (12.5 μg/mL, BACTEC 12B medium): 0%

Compound: COc1ccc(C2CC(=O)c3c(cc(OC)c(-c4c(OC)cc5c(c4OC)C(=O)CC(c4ccc(OC)cc4)O5)c3OC)O2)cc1 (centres unmarked) [Compound 157, 6-6′′-Binaringenin hexamethylether]
- anti-TB activity in words (12.5 μg/mL): inactive
- Activity % Inhibition at 12.5 μg/mL (biflavonoids) (12.5 μg/mL, BACTEC 12B medium): 2%

Compound: O=c1c(O)c(-c2ccccc2)oc2ccccc12 [Compound 92, 3-hydroxyflavone]
- inhibition at 12.5 µg/mL (12.5 μg/mL, BACTEC 12B medium, read-out: Activity % Inhibition at 12.5 μg/mL (flavones)): 38%
- inhibition at 12.5 µg/mL [1]: 38%

Compound: O=C1CC(c2ccccc2)Oc2cc(F)ccc21 (centres unmarked) [Compound 143]
- Activity % Inhibition at 12.5 μg/mL (flavanones) (12.5 μg/mL, BACTEC 12B medium): 7%

Compound: O=c1cc(-c2ccc(O)c(-c3c(O)cc(O)c4c(=O)cc(-c5ccc(O)cc5)oc34)c2)oc2cc(O)cc(O)c12 [Compound 164, Amentoflavone]
- inhibition at 12.5 µg/mL [2]: 0%

Compound: COc1ccc(/C=C/C(=O)c2cccc(F)c2O)cc1 [Compound 23]
- Activity % inhibition at 12.5 μg/mL (chalcones) (12.5 μg/mL, BACTEC 12B medium): 45%

Compound: O=C(/C=C/c1ccc(I)cc1)c1ccccc1O [Compound 46]
- Activity % inhibition at 12.5 μg/mL (chalcones) (12.5 μg/mL, BACTEC 12B medium): 21%
- inhibition of the growth of Mtb (drug concentration 12.5 μg/mL): 21%

Compound: O=C1c2c(O)cc(O)cc2O[C@H](c2ccc(O)cc2)[C@H]1c1c(O)cc(O)c2c(=O)cc(-c3ccc(O)c(O)c3)oc12 [Compound 171, Morelloflavone]
- inhibition at 12.5 µg/mL [2]: 0%

Compound: COc1ccc(/C=C/C(=O)c2ccc(OC)cc2O)cc1 [Compound 9]
- Activity % inhibition at 12.5 μg/mL (chalcones) (12.5 μg/mL, BACTEC 12B medium): 32%

Compound: CC(=O)Oc1ccc([C@@H]2CC(=O)c3c(cc(OC(C)=O)c(-c4c(OC(C)=O)cc5c(c4OC(C)=O)C(=O)C[C@@H](c4ccc(OC(C)=O)cc4)O5)c3OC(C)=O)O2)cc1 [Compound 174, Succedaneaflavanone hexaacetate]
- Activity % Inhibition at 12.5 μg/mL (biflavonoids) (12.5 μg/mL, BACTEC 12B medium): 0%

Compound: O=C(/C=C/c1cccc(I)c1)c1cccc(Br)c1O [Compound 51, 3′-bromo-2′-hydroxy-3-iodochalcone]
- inhibition at 12.5 µg/mL [1]: 0%

Compound: COc1ccc(/C=C/C(=O)c2cc(I)ccc2O)cc1 [Compound 48]
- Activity % inhibition at 12.5 μg/mL (chalcones) (12.5 μg/mL, BACTEC 12B medium): 0%
- inhibition of the growth of Mtb (drug concentration 12.5 μg/mL): 0%

Compound: O=c1cc(-c2ccccc2)oc2c(Br)cccc12 [Compound 77]
- Activity % Inhibition at 12.5 μg/mL (flavones) (12.5 μg/mL, BACTEC 12B medium): 66%

Compound: COc1ccc2c(c1)OC(c1ccc(Cl)cc1)CC2=O (centres unmarked) [Compound 137]
- Activity % Inhibition at 12.5 μg/mL (flavanones) (12.5 μg/mL, BACTEC 12B medium): 48%

Compound: O=C1CC(c2ccccc2)Oc2cc(Br)ccc21 (centres unmarked) [Compound 136, 7-bromo-flavanone]
- inhibition at 12.5 µg/mL (12.5 μg/mL, BACTEC 12B medium, read-out: Activity % Inhibition at 12.5 μg/mL (flavanones)): 53%
- inhibition at 12.5 µg/mL [1]: 53%

Compound: CN(C)c1ccc(/C=C/C(=O)c2ccncc2)cc1 [Compound 68]
- Activity % inhibition at 12.5 μg/mL (chalcone-like compounds) (12.5 μg/mL, BACTEC 12B medium): 1%

Compound: O=c1cc(-c2ccccc2-c2cccc3c(=O)cc(-c4ccccc4)oc23)oc2ccccc12 [Compound 161, 8-2′′′-Biflavone]
- Activity % Inhibition at 12.5 μg/mL (biflavonoids) (12.5 μg/mL, BACTEC 12B medium): 0%

Compound: COc1ccc(-c2oc3cc(OC)cc(OC)c3c(=O)c2Br)cc1 [Compound 131]
- Activity % Inhibition at 12.5 μg/mL (flavones) (12.5 μg/mL, BACTEC 12B medium): 0%

Compound: O=C(/C=C/c1ccncc1)c1ccco1 [Compound 75]
- Activity % inhibition at 12.5 μg/mL (chalcone-like compounds) (12.5 μg/mL, BACTEC 12B medium): 0%

Compound: COc1ccc(-c2oc3ccc(C(=O)O)cc3c(=O)c2O)cc1 [Compound 130]
- Activity % Inhibition at 12.5 μg/mL (flavones) (12.5 μg/mL, BACTEC 12B medium): 0%

Compound: O=c1c(O)c(-c2ccccc2)oc2c(F)cccc12 [Compound 90]
- Activity % Inhibition at 12.5 μg/mL (flavones) (12.5 μg/mL, BACTEC 12B medium): 43%

Compound: O=c1c(O)c(-c2ccccc2)oc2ccc(I)cc12 [Compound 79]
- Activity % Inhibition at 12.5 μg/mL (flavones) (12.5 μg/mL, BACTEC 12B medium): 64%

Compound: O=c1cc(-c2ccc(Cl)c([N+](=O)[O-])c2)oc2ccccc12 [Compound 95]
- Activity % Inhibition at 12.5 μg/mL (flavones) (12.5 μg/mL, BACTEC 12B medium): 28%

Compound: CC(=O)Nc1cccc(/C=C/C(=O)c2ccccc2O)c1 [Compound 17]
- Activity % inhibition at 12.5 μg/mL (chalcones) (12.5 μg/mL, BACTEC 12B medium): 0%

Compound: COc1ccc(-c2oc3c(I)cccc3c(=O)c2O)cc1 [Compound 113]
- Activity % Inhibition at 12.5 μg/mL (flavones) (12.5 μg/mL, BACTEC 12B medium): 6%

Compound: CC(=O)Oc1ccc(C2Oc3cc(OC(C)=O)cc(OC(C)=O)c3C(=O)C2c2c(OC(C)=O)cc(OC(C)=O)c3c(=O)cc(-c4ccc(OC(C)=O)c(OC(C)=O)c4)oc23)cc1 (centres unmarked) [Compound 175, Morelloflavone heptaacetate]
- Activity % Inhibition at 12.5 μg/mL (biflavonoids) (12.5 μg/mL, BACTEC 12B medium): 0%

Compound: O=c1cc(-c2ccc(Oc3c(O)cc4oc(-c5ccc(O)cc5)cc(=O)c4c3O)cc2)oc2cc(O)cc(O)c12 [Compound 167, Hinokiflavone]
- inhibition at 12.5 µg/mL [2]: 0%

Compound: O=c1cc(-c2ccccc2I)oc2ccccc12 [Compound 100]
- anti-TB activity in words (12.5 μg/mL): weakly active or inactive
- Activity % Inhibition at 12.5 μg/mL (flavones) (12.5 μg/mL, BACTEC 12B medium): 22%
- inhibition of the growth of Mtb (drug concentration 12.5 μg/mL): 22%

Compound: Nc1ccc(C(=O)/C=C/c2cccnc2N)cc1 [Compound 66]
- Activity % inhibition at 12.5 μg/mL (chalcone-like compounds) (12.5 μg/mL, BACTEC 12B medium): 7%

Compound: O=C(c1ccccc1)c1ccc2c(=O)c(C(=O)c3ccccc3)c(-c3ccccc3)oc2c1 [Compound 110]
- Activity % Inhibition at 12.5 μg/mL (flavones) (12.5 μg/mL, BACTEC 12B medium): 12%

Compound: Nc1cccc(/C=C/C(=O)c2ccccc2O)c1 [Compound 11]
- Activity % inhibition at 12.5 μg/mL (chalcones) (12.5 μg/mL, BACTEC 12B medium): 11%

Compound: COc1ccc(C(=O)/C=C/c2ccccc2)c(O)c1 [Compound 1]
- Activity % inhibition at 12.5 μg/mL (chalcones) (12.5 μg/mL, BACTEC 12B medium): 78%
- inhibition of the growth of Mtb (drug concentration 12.5 μg/mL): 78%

Compound: COc1ccc2c(=O)c(Br)c(-c3ccc(Cl)cc3)oc2c1 [Compound 103]
- Activity % Inhibition at 12.5 μg/mL (flavones) (12.5 μg/mL, BACTEC 12B medium): 19%

Compound: O=C(C=Cc1ccccc1)c1ccc(Cl)cc1O [Compound 25]
- Activity % inhibition at 12.5 μg/mL (chalcones) (12.5 μg/mL, BACTEC 12B medium): 89%
- inhibition of the growth of Mtb (drug concentration 12.5 μg/mL): 89%

Compound: Suceedaneaflavanone [Compound 169]
- Activity % Inhibition at 12.5 μg/mL (biflavonoids) (12.5 μg/mL, BACTEC 12B medium): 0%

Compound: O=C(/C=C/c1ccccc1)c1ccc(I)cc1O [Compound 45]
- Activity % inhibition at 12.5 μg/mL (chalcones) (12.5 μg/mL, BACTEC 12B medium): 21%
- inhibition of the growth of Mtb (drug concentration 12.5 μg/mL): 21%

Compound: COc1cc(OC)c2c(c1)OC(c1cc(OC)c(OC)c(OC)c1)C(Br)(Br)C2=O (centres unmarked) [Compound 140]
- Activity % Inhibition at 12.5 μg/mL (flavanones) (12.5 μg/mL, BACTEC 12B medium): 16%

Compound: O=c1cc(-c2cccc(-c3cccc4c(=O)cc(-c5ccccc5)oc34)c2)oc2ccccc12 [Compound 155, 3′-8′′-Biflavone]
- anti-TB activity in words (12.5 μg/mL): moderate activity
- Activity % Inhibition at 12.5 μg/mL (biflavonoids) (12.5 μg/mL, BACTEC 12B medium): 49%

Compound: COc1ccc(-c2cc(=O)c3c(OC)cc(OC)c([C@@H]4C(=O)c5c(OC)cc(OC)cc5O[C@H]4c4ccc(OC)cc4)c3o2)cc1 [Compound 152, Volkensiflavone hexamethylether]
- Activity % Inhibition at 12.5 μg/mL (biflavonoids) (12.5 μg/mL, BACTEC 12B medium): 95%
- inhibition of the growth of Mtb (drug concentration 12.5 μg/mL): 95%

Compound: COc1ccc(-c2oc3ccc(Cl)cc3c(=O)c2O)cc1 [Compound 87]
- anti-TB activity in words (12.5 μg/mL): did not change the activity
- Activity % Inhibition at 12.5 μg/mL (flavones) (12.5 μg/mL, BACTEC 12B medium): 48%

Compound: O=C1CC(c2ccccc2)Oc2cc(I)ccc21 (centres unmarked) [Compound 141]
- Activity % Inhibition at 12.5 μg/mL (flavanones) (12.5 μg/mL, BACTEC 12B medium): 9%

Compound: COc1ccc(-c2cc(=O)c3ccc(I)cc3o2)cc1 [Compound 128]
- Activity % Inhibition at 12.5 μg/mL (flavones) (12.5 μg/mL, BACTEC 12B medium): 0%
